For one experiment, the target named is T1, IGF1R tyrosine kinase (Homo sapiens, UniProt P08069).
T1 construct: 6×His- or GST-tagged kinase domain fragments of the corresponding RTKs expressed in baculovirus system; host or cells: baculovirus system
Description: IGF1R tyrosine kinase assay (Kinase-Glo ATP depletion or PT66/PT100 AlphaScreen). Particulars: biochemical tyrosine kinase assay. The procedure, abridged: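 Luminescence of remaining ATP (Kinase-Glo) or anti-phosphotyrosine AlphaScreen proximity signal served as read-out. Reactions held purified tagged kinase domain, poly(Glu-Tyr) substrate and 10 μM ATP at pH 7.5. IC50 values came from non-linear regression fits.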

The test system of experiment [1] is HEK293 (human normal embryonic kidney). Description: Cell proliferation inhibition, Cell Titer-Glo, HEK293. Type of experiment: cell-based. Particulars: cell proliferation assay, HEK293 cells, read-out: HEK 293 IC50. The procedure, abridged: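 Cells seeded at 2500-5000 per well with serially diluted compound for typically 3 days. Viable cells measured by ATP luminescence (Cell Titer-Glo); IC50 from proliferation-inhibition curves.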
On the technique in general: In ATP-based viability assays light output follows the ATP content of the culture.

For experiment [2], the system named is CHO (chinese hamster ovary). As to the kind of experiment: Cell proliferation inhibition, Cell Titer-Glo, CHO. The experiment is classed as cell-based. Particulars: Cricetulus griseus; cell proliferation assay, CHO cells. The method, then:
IGF1R and other tyrosine kinase inhibitors can inhibit the proliferation of certain cancer cell lines indicating their possible therapeutic utility for treating the corresponding cancer types. Cancer cell lines of interest and control normal lines, including CHO, HEK293, BA/F3, MM1, H929, COLO205, PC3, DU145, MCF7, Panc1, ACHN, Hep G2, H460, K562, TT, U87-G, CAOV-3, SK-MEL5, Karpas 299, are plated in white, clear-bottomed 384-well cell culture plates at 2500-5000 cells per well and supplied with dilutions of tested compounds After a desired period of time (typically 3 days), the number of viable cells is quantitated by using Cell Titer-Glo Luminescent Cell Viability Assay (Promega), a cell proliferation assay system based on detection of total amount of ATP present as a measure of cell metabolic activity. The plated cells are mixed with the Cell Titer-Glo developing reagent and counted in a luminescence multiwell plate reader according to the standard manufacturer's protocol to generate IC50 curves for cell proliferation inhibition.
IGF1R and other tyrosine kinase inhibitors can inhibit the proliferation of certain cancer cell lines indicating their possible therapeutic utility for treating the corresponding cancer types. Cancer cell lines of interest and control normal lines, including CHO, HEK293, BA/F3, COLO205, PC3, DU145, MCF7, Panc1, ACHN, Hep G2, H460, K562, TT, U87-MG, CAOV-3, SK-MEL5, Karpas 299 and human multiple myeloma cell lines H929, MM1s, MM1r, UTMC2, CPM2, KMS11, My5, KMS12PE, My7, JJN3, KMS18, U266, SKMM2, RPMI-8226 are plated in white, clear-bottomed 384-well cell culture plates at 2500-5000 cells per well and supplied with dilutions of tested compounds After a desired period of time (typically 3 days), the number of viable cells is quantitated by using Cell Titer-Glo Luminescent Cell Viability Assay (Promega), a cell proliferation assay system based on detection of total amount of ATP present as a measure of cell metabolic activity. The plated cells are mixed with the Cell Titer-Glo developing reagent and counted in a luminescence multiwell plate reader according to the standard manufacturer's protocol to generate IC50 curves for cell proliferation inhibition. Results are typically reported as percent of growth (% viability =(OD72h(compound)−ODday0))/(OD72h(no compound)−ODday0). Alternatively, viable cells are quantitated by using the conventional colorimetric MTT assay. The MTT assay is based on the cleavage of the yellow tetrazolium salt MTT to purple formazan crystal by metabolic active cells. The formazan is then solubilized, and the concentration determined by optical density at 570 nm. The cells plated and incubated with a compound as described above are supplemented with the solution of MTT and incubated for 2-3 hours. The growth medium is removed and dimethyl sulfoxide is added into each well to dissolve the formazan. The absorbance is measured on an ELISA plate reader with a test wavelength of 570 nm and a background subtraction wavelength of 630 nm to obtain sample signal (OD570-OD630). […] The results are reported in terms of IC50 value for a particular compound and a cell line in the standard 3-day proliferation assay using Cell Titer-Glo. […] The results are reported in terms of IC50 value for a particular compound and a cell line in the standard 3-day proliferation assay using MTT assay.

For another experiment, the target named is T2, TrkA (Homo sapiens, UniProt P04629).
T2 construct: 6×His- or GST-tagged kinase domain fragments of the corresponding RTKs expressed in baculovirus system; host or cells: baculovirus system
Description: Tyrosine kinase assay (Kinase-Glo or AlphaScreen), TrkA. Particulars: biochemical tyrosine kinase assay. As to the method:
To determine inhibition of several tyrosine kinases, such as IGF1R, InsR, Alk, TrkA and Jak2, kinase assays are conducted using either Kinase-Glo (Promega) or AlphaScreen (PerkinElmer) kinase assay platforms. The Kinase-Glo Luminescent Kinase Assay is a homogeneous method for measuring kinase activity by determining the amount of ATP remaining after a kinase reaction. The luminescent signal is proportional to the amount of ATP and inversely proportional to the amount of kinase activity. Tyrosine kinase PT66 AlphaScreen Assay is a high-sensitivity homogeneous, anti-phosphotyrosine antibody-mediated luminescent proximity method measuring, incorporation of phosphate in synthetic poly(Glu-Tyr) substrate. The kinase preparations used consist of purified recombinant, 6×His- or GST-tagged kinase domain fragments of the corresponding RTKs expressed in baculovirus system.
The IGF1R tyrosine kinase is assayed in Kinase-Glo ATP depletion assay using the synthetic polymer poly(Glu-Tyr, 4:1) (Sigma Chemicals) as a phosphoacceptor substrate. Each reaction mixture consists of a total volume of 10 μl and contains 40 ng of the enzyme, 5 μg of poly(Glu-Tyr), 10 μM of ATP and variable concentrations of test compounds. The mixtures also contain 50 mM Tris-HCl, pH 7.5; 5 mM MgCl2; 5 mM MnCl2; 2 mM DTT and 0.01% Tween 20. The reaction mixtures are incubated at 37° C. for 60 minutes and residual concentration of ATP in the mixture is determined by adding luciferase-containing Kinase-Glo (Promega) development reagent and counting luminescence levels using Fusion Universal Microplate Analyzer (PerkinElmer). Tested compounds are dissolved in dimethyl sulfoxide to a stock concentration of 10 mM and are typically evaluated in the assay at eight concentrations in 1 nM to 20 μM range, each in quadruplicate. […] IC50 values are derived by non-linear regression analysis using Prism 3.0 software (Graphpad Software). Other tyrosine kinases are assayed according to the same protocol after titrating amount of the enzyme to provide optimal signal-to-noise ratio and no more than 30% of total ATP consumption in the reaction conditions used.
The IGF1R tyrosine kinase is assayed in Phosphotyrosine (PT66 or PT 100) AlphaScreen chemiluminescent assay (PerkinElmer) according to the manufacturerer's recommendations. Each kinase reaction mixture consists of a total volume of 15 μl and contains 0.1-1 ng of the enzyme, 7 ng of biotinylated poly(Glu-Tyr) (Cis-Bio), 10 μM of ATP and variable concentrations of test compounds. The mixtures also contain 50 mM Tris-HCl, pH 7.5; 5 mM MgCl2; 5 mM MnCl2; 2 mM DTT and 0.01% Tween 20. The reaction mixtures are incubated at room temperature for 30 minutes. Ten (10) μl of the mixture of […] and donor beads (as supplied by the manufacturer) is then added to the reaction and the incubation is continued for an additional 60 minutes.

T1 sequence (P08069 999-1274 limits assumed): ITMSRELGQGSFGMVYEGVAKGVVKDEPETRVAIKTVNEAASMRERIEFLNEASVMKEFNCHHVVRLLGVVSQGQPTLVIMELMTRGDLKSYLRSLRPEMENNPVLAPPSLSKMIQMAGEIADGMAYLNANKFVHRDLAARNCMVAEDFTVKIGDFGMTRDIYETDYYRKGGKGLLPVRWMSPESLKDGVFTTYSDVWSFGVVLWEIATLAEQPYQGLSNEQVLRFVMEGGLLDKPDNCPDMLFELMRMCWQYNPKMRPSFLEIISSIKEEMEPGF
T2 sequence (P04629 510-781 limits assumed, species assumed): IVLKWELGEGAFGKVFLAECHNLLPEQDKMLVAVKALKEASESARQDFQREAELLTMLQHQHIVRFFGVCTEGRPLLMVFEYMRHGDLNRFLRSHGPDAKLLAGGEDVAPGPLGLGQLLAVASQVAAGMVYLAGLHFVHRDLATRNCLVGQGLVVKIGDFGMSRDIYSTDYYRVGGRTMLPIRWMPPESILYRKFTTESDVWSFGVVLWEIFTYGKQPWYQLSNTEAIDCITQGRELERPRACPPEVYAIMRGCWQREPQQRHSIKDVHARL

Regarding `CCN1CCC(N2Cc3cc4nc(-c5c(NC[C@@H](O)COc6ccc(C)cc6C)cc[nH]c5=O)[nH]c4cc3C2=O)CC1` [compound 144], the values for the IC50 (against IGF1R tyrosine kinase; in experiment [1]; in experiment [2]) were under 0.5 µM, 5 to 15 µM and 5 to 15 µM, respectively.
Consider `Cc1ccc(OC[C@H](O)CNc2cc[nH]c(=O)c2-c2nc3c(C)c4c(cc3[nH]2)C(=O)N(C2CCN(C)CC2)C4)c(C)c1` [compound 139], for which the IC50 on IGF1R tyrosine kinase was under 0.5 µM; in experiment [1], over 15 µM; in experiment [2], over 15 µM.
For the compound `Cc1ccc2c(ccn2C[C@H](O)CNc2cc[nH]c(=O)c2-c2nc3cc4c(cc3[nH]2)C(=O)N(C2CCN(C)CC2)C4=O)c1` [compound 131], the IC50 against TrkA is under 0.5 µM; against IGF1R tyrosine kinase, 5 to 15 µM; in experiment [1] it was 0.5 to 5 µM; in experiment [2], 5 to 15 µM.
Consider `Cc1ccc(OC[C@H](O)CNc2cc[nH]c(=O)c2-c2nc3cc4c(cc3[nH]2)CN(C2CCN(C)CC2)C4=O)c(C)c1` [compound 130], for which the IC50 against IGF1R tyrosine kinase was under 0.5 µM; in experiment [1], over 15 µM; in experiment [2], over 15 µM.
As for `Cc1ccc(OC[C@H](O)CNc2cc[nH]c(=O)c2-c2nc3c(C)c4c(cc3[nH]2)CN(C2CCN(C)CC2)C4=O)c(C)c1` [compound 140], the IC50 is under 0.5 µM at IGF1R tyrosine kinase, 5 to 15 µM in experiment [1] and over 15 µM in experiment [2].
The corresponding values for `Cc1ccc(OC[C@H](O)CNc2cc[nH]c(=O)c2-c2nc3cc4c(cc3[nH]2)C(=O)N(C2CCNCC2)C4=O)c(C)c1` [compound 142] are under 0.5 µM, 5 to 15 µM and 5 to 15 µM.
In the case of `Cc1ccc(OCC(O)CNc2cc[nH]c(=O)c2-c2nc3cc4c(cc3[nH]2)C(=O)N(C2CCN(C)CC2)C4=O)c(C)c1` (stereo not shown) [compound 15], the figures for the IC50 (at TrkA; against IGF1R tyrosine kinase; in experiment [1]) were under 0.5 µM, under 0.5 µM and 5 to 15 µM, respectively.
Take `Cc1ccc(OC[C@H](O)CNc2cc[nH]c(=O)c2-c2nc3cc4c(c(C)c3[nH]2)CN(C2CCN(C)CC2)C4=O)c(C)c1` [compound 132]: the values for the IC50 (on IGF1R tyrosine kinase; in experiment [1]; in experiment [2]) were under 0.5 µM, over 15 µM and over 15 µM, respectively.
On to `CCN1CCC(N2C(=O)c3cc4nc(-c5c(NC[C@@H](O)COc6ccc(C)cc6C)cc[nH]c5=O)[nH]c4cc3C2=O)CC1` [compound 143], for which the IC50 against IGF1R tyrosine kinase is under 0.5 µM; in experiment [1], over 15 µM; in experiment [2], over 15 µM.
For the compound `CCc1cc(C)ccc1OC[C@H](O)CNc1cc[nH]c(=O)c1-c1nc2cc3c(cc2[nH]1)CN(C1CCN(C)CC1)C3=O` [compound 141], the values for the IC50 (at IGF1R tyrosine kinase; in experiment [1]; in experiment [2]) were under 0.5 µM, over 15 µM and over 15 µM, respectively.

In general, IC50 refers to the concentration that inhibits the measured activity by half.

(Values after patent publication US8063225B2, “Tricyclic compound derivatives useful in the treatment of neoplastic diseases, inflammatory disorders and immunomodulatory disorders” (Chembridge Corporation, priority 2006, dated 2011).)
